How the values were obtained:
Experiment in all cases: relative viability (nuclei count vs DMSO), 5 days (fraction); higher = more cells survive
Linsitinib + Olaparib = compound: C[C@]1(O)C[C@@H](c2nc(-c3ccc4ccc(-c5ccccc5)nc4c3)c3c(N)nccn32)C1 [Linsitinib] + O=C(c1cc(Cc2n[nH]c(=O)c3ccccc23)ccc1F)N1CCN(C(=O)C2CC2)CC1 [Olaparib] (partner 8 µM)
Outline: (§1)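 One day after seeding in 1536-well plates, lung cancer cell lines were dosed by pin tool. Dosing was either single-drug or a fixed anchor-drug dose plus five library-drug doses (not always all listed) in √10 steps. After 5 days, nuclei were stained in one fix-and-stain step and counted on 4× images, and relative viability is the nuclei count of treated wells over that of vehicle wells, given as the median of duplicate plates.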

Ispinesib + AZD7762 = compound: Cc1ccc(C(=O)N(CCCN)[C@@H](c2nc3cc(Cl)ccc3c(=O)n2Cc2ccccc2)C(C)C)cc1 [Ispinesib] + NC(=O)Nc1cc(-c2cccc(F)c2)sc1C(=O)N[C@H]1CCCNC1 [AZD7762] (partner 0.2 µM)
Outline: as §1

Ispinesib + OSI-027 = compound: Cc1ccc(C(=O)N(CCCN)[C@@H](c2nc3cc(Cl)ccc3c(=O)n2Cc2ccccc2)C(C)C)cc1 [Ispinesib] + COc1cccc2cc(-c3nc([C@H]4CC[C@H](C(=O)O)CC4)n4ncnc(N)c34)[nH]c12 [OSI-027] (partner 0.5 µM)
Outline: as §1

Linsitinib + Navitoclax = compound: C[C@]1(O)C[C@@H](c2nc(-c3ccc4ccc(-c5ccccc5)nc4c3)c3c(N)nccn32)C1 [Linsitinib] + CC1(C)CCC(c2ccc(Cl)cc2)=C(CN2CCN(c3ccc(C(=O)NS(=O)(=O)c4ccc(N[C@H](CCN5CCOCC5)CSc5ccccc5)c(S(=O)(=O)C(F)(F)F)c4)cc3)CC2)C1 [Navitoclax] (partner 0.5 µM)
Outline: as §1

Cell Line | relative viability (Linsitinib + Olaparib; first compound 0.01 µM) | relative viability (Linsitinib + Olaparib; first compound 0.03162 µM) | relative viability (Linsitinib + Olaparib; first compound 0.1 µM) | relative viability (Linsitinib + Olaparib; first compound 0.3162 µM) | relative viability (Linsitinib + Olaparib; first compound 1 µM) | relative viability (Ispinesib + AZD7762; first compound 0.001 µM) | relative viability (Ispinesib + AZD7762; first compound 0.003162 µM) | relative viability (Ispinesib + AZD7762; first compound 0.01 µM) | relative viability (Ispinesib + AZD7762; first compound 0.03162 µM) | relative viability (Ispinesib + AZD7762; first compound 0.1 µM) | relative viability (Ispinesib + OSI-027; first compound 0.001 µM) | relative viability (Ispinesib + OSI-027; first compound 0.003162 µM) | relative viability (Ispinesib + OSI-027; first compound 0.01 µM) | relative viability (Ispinesib + OSI-027; first compound 0.03162 µM) | relative viability (Ispinesib + OSI-027; first compound 0.1 µM) | relative viability (Linsitinib + Navitoclax; first compound 0.01 µM) | relative viability (Linsitinib + Navitoclax; first compound 0.03162 µM) | relative viability (Linsitinib + Navitoclax; first compound 0.1 µM) | relative viability (Linsitinib + Navitoclax; first compound 0.3162 µM) | relative viability (Linsitinib + Navitoclax; first compound 1 µM)
NCI-H441 | 0.515 | 0.667 | 0.487 | 0.399 | 0.435 | 1.41 | 1.22 | 1.44 | 0.64 | 0.309 | 0.582 | 0.738 | 0.517 | 0.175 | 0.285 | 0.803 | 0.795 | 1.12 | 0.397 | 0.439
NCI-H1437 | 0.636 | 0.632 | 0.667 | 0.636 | 0.584 | 1.16 | 1.15 | 1.18 | 1.13 | 0.296 | 1.1 | 0.881 | 1.16 | 0.938 | 0.263 | 1.03 | 0.994 | 1.1 | 1.01 | 1.02
PC-14 | 0.26 | 0.177 | 0.303 | 0.233 | 0.263 | 0.44 | 0.484 | 0.388 | 0.142 | 0.111 | 0.983 | 0.791 | 0.256 | 0.0319 | 0.0859 | 0.968 | 1.01 | 1.03 | 0.984 | 0.944
H3255 | 0.6 | 0.604 | 0.564 | 0.456 | 0.5 | 0.94 | 1.06 | 0.89 | 0.623 | 0.311 | 0.577 | 0.574 | 0.588 | 0.552 | 0.414 | 0.615 | 0.504 | 0.499 | 0.433 | 0.395
NCI-H2126 | 0.962 | 0.957 | 0.934 | 0.779 | 0.862 | 1.04 | 1.08 | 1.2 | 1.03 | 0.591 | 0.757 | 0.894 | 0.674 | 0.664 | 0.63 | 0.95 | 0.808 | 0.945 | 0.925 | 0.878
HCC-366 | 0.354 | 0.219 | 0.481 | 0.332 | 0.265 | 0.267 | 0.29 | 0.204 | 0.346 | 0.0475 | 0.944 | 1.01 | 1.33 | 0.204 | 0.0402 | 1.04 | 0.782 | 1.12 | 0.921 | 0.996
LU99A | 0.3 | 0.195 | 0.266 |  | 0.255 | 0.474 | 0.368 | 0.394 | 0.161 | 0.14 | 0.268 | 0.294 | 0.299 | 0.264 | 0.189 | 0.975 | 0.892 | 0.749 | 0.602 | 0.691
HOP-62 |  | 0.247 | 0.524 | 0.244 | 0.393 | 0.441 | 0.848 | 0.679 | 0.482 | 0.214 | 0.756 | 1.07 | 1.05 | 0.76 | 0.444 | 1.08 | 1.12 | 1.13 | 0.636 | 0.823
HCC-15 | 0.697 | 0.938 | 0.759 | 0.364 | 0.655 | 1.26 | 1.33 | 1.34 | 0.902 | 0.154 | 0.773 | 0.715 | 0.771 | 0.203 | 0.178 | 0.657 | 0.698 | 0.693 | 0.489 | 0.62
HARA | 0.631 | 0.396 | 0.69 |  | 0.935 | 0.501 | 0.345 | 0.365 | 0.308 | 0.227 | 0.641 | 0.553 | 0.535 | 0.0672 | 0.0972 | 1.09 | 1.17 | 1.13 | 0.788 | 1.15
NCI-H1355 | 0.741 | 0.742 | 0.628 | 0.483 | 0.353 | 0.783 | 0.847 | 0.805 | 0.448 | 0.284 | 0.352 | 0.442 | 0.427 | 0.316 | 0.261 | 0.888 | 0.868 | 0.881 | 0.729 | 0.659
NCI-H727 | 0.694 | 0.773 | 0.747 | 0.449 | 0.601 | 0.722 | 0.564 |  | 0.548 | 0.498 | 0.856 | 0.707 | 0.604 | 0.404 | 0.361 | 0.406 | 0.539 | 0.376 | 0.19 | 0.184
NCI-H838 | 0.754 | 0.722 | 0.73 | 0.482 | 0.533 | 1.01 | 0.804 | 1.03 | 0.941 | 0.714 | 0.425 | 0.359 | 0.539 | 0.436 | 0.197 | 1.14 | 1.12 | 1.21 | 0.875 | 0.986
HCC-44 | 1.01 | 0.924 | 1 | 0.858 | 0.916 | 0.983 | 1.1 | 1.02 | 1.03 | 0.756 | 0.458 | 0.812 | 0.505 | 0.484 | 0.151 | 1.01 | 0.839 | 0.85 | 0.718 | 0.794
LK-2 | 0.63 | 0.721 | 0.683 | 0.415 | 0.389 | 0.358 | 0.552 | 0.306 | 0.154 | 0.185 | 0.2 | 0.256 | 0.194 | 0.176 | 0.213 | 0.875 | 0.829 | 0.759 | 0.575 | 0.531
HCC-827 | 0.759 | 0.377 | 0.606 |  | 0.625 | 0.229 | 0.21 | 0.146 | 0.198 | 0.197 | 0.653 | 0.801 | 0.887 | 0.664 | 0.437 | 1 | 1.04 | 1.01 |  | 0.974
